{
  "source": "patent US12419889B2",
  "about": "“Methods of treating chronic spontaneous urticaria using a bruton's tyrosine kinase inhibitor” (NOVARTIS AG, priority 2019, dated 2025)",
  "key": {"[1]": {"assay": "First-in-human study, blood and urine PK (SAD, MAD q.d., b.i.d.)", "type": "in vivo", "details": "for drug accumulation ratio (Racc): MAD q.d.", "protocol": "A first-in-human study was conducted to assess the safety and tolerability, pharmacokinetics (PK) and pharmacodynamics (PD) of single and multiple doses of compound (I) both as once daily (qd) and twice daily (bid) oral administration in healthy volunteers and those with atopic diathesis, to support further clinical development of compound (I) in autoimmune diseases. This study also explored the effect of food intake.\nFirst-in-human study in up to approximately 168 healthy volunteers (HVs), of which 64 (in Parts 2 & 4) had asymptomatic atopic diathesis. • Part 1 was a double-blind (subject and investigator blind, sponsor unblinded), placebo-controlled single ascending dose (SAD) escalation study of 10 cohorts (N=80) • Part 2 was a double-blind (subject and investigator blind, sponsor unblinded), placebo-controlled multiple ascending dose (MAD) (13 doses over 12 days) escalation study employing once daily dosing in 6 cohorts in healthy volunteers with asymptomatic atopic diathesis (N=48) • Part 3 was a single dose open-label crossover food effect study in 12 HVs • Part 4 was a double-blind (subject and investigator blind, sponsor unblinded), placebo-controlled multiple dose (25 doses over 12 days) study employing twice daily dosing in 2 cohorts of healthy volunteers with asymptomatic atopic diathesis (N=16)\nThe SAD part (Part 1) had ten dose levels and the MAD parts (Parts 2 & 4) consisted of eight dose levels (6 cohorts using single daily dosing in Part 2 and 2 cohorts using twice daily dosing in Part 4). Eight subjects were randomized into each cohort to receive either compound (I) or matching placebo in a 6:2 (active: placebo) ratio in the SAD and MAD parts. Within the SAD part, doses up to approximately 4 times the estimated pharmacologically active dose (PAD) were to be evaluated before the MAD part of the study was started, providing there was no safety signal emerging from the SAD part until then.\nIn Part 1, subjects were admitted to the study site on Day −2 or −1 for baseline safety assessments and to confirm eligibility. Eligible subjects received a single dose of compound (I) or placebo under fasting conditions on Day 1. They were domiciled from Day −1 to the morning of Day 5 (96 hours post last drug administration).\nIn Parts 2 and 4, subjects were admitted on Day −2 or −1 for baseline safety assessments and to confirm eligibility. Eligible subjects received the first dose of compound (I) under fasting conditions on Day 1, and continued to take study medication under fasting conditions up to and including Day 12. Subjects were domiciled from Day −2 or −1 until the morning of Day 16, which equals 96 hours after the last dose of compound (I) was received. In Parts 2 and 4, the study medication was given once daily and twice daily respectively (details are found in the schedule of assessments).\nSubjects were assigned to one of the following 10 cohorts. In each cohort, 8 subjects were randomized to either compound (I) or matching placebo in an overall 6:2 ratio. The first sub-cohort was randomized in a 1:1 ratio as one subject on compound (I) and one on matching placebo. […]"}, "[2]": {"system": "passive cutaneous anaphylaxis (PCA)", "assay": "Passive cutaneous anaphylaxis (PCA) model, Evans blue extravasation", "type": "in vivo", "details": "mouse PCA", "protocol": "(§1) The effects of compound (I) on acute skin hypersensitivity were also assessed after two oral doses of compound (I) in the mouse of model of passive cutaneous anaphylaxis (PCA) (Ovary 1958). The mouse PCA model was used at a low dose of sensitizing IgE antibody to minimize complement-dependent anaphylatoxins (Schafer et al. 2013, The journal of allergy and clinical immunology, 131(2), pp. 541; Hata et al. 1998, Journal of Experimental Medicine, 187(8), pp. 1235). […] (FIG. 3). Spleen occupancy at 2.5 hours post last dose ranged from 89.1 to 99.7% (representing peak occupancy) (FIG. 4)."}, "BTK": {"target": "T1, BTK (Mus musculus, UniProt P35991)", "T1 construct": "from tissue; host or cells: mouse spleen", "T1 sequence (P35991 whole entry)": "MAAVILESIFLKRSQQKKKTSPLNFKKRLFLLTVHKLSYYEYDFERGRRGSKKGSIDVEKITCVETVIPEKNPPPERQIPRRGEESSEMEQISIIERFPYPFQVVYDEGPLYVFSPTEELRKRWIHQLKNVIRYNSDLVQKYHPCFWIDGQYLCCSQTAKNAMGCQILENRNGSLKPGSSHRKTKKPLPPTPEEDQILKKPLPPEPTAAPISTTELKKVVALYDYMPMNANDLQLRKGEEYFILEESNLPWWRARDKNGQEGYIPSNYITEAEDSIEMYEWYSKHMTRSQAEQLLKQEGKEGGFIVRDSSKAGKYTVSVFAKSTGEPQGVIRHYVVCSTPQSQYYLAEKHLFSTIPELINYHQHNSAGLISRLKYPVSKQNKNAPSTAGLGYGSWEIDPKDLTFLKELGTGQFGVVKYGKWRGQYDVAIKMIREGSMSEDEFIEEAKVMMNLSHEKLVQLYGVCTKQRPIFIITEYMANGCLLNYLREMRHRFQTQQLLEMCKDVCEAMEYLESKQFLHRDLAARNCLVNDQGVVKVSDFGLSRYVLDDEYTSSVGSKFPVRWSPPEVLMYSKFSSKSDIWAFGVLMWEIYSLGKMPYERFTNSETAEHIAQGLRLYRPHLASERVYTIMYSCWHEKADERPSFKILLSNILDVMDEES", "assay": "BTK occupancy in spleen in mouse RPA and PCA models", "type": "in vivo", "details": "mouse RPA, 5 h after dosing", "protocol": "The in vivo PD effects of an irreversible BTK inhibitor like compound (I) are determined by the extent and duration of covalent BTK occupancy by the inhibitor. BTK occupancy after treatment with Compound of Formula (I) (also referenced to as Compound (I)) was measured in an ex vivo immunoassay. The fraction of unoccupied BTK protein was assayed after in vitro incubation with a covalent biotinylated BTK probe, since compound (I) and the probe bind to BTK in a mutually exclusive manner. Unoccupied BTK, as well as total BTK relative protein levels were determined in lysates of selected tissues and levels of unoccupied BTK were normalized to total BTK protein levels in the same samples.\nOral treatment with compound (I) at a single dose of 3, 10, 30 and 100 mg/kg, given 2 hours prior to induction of the RPA response, reduced skin swelling in a dose-related manner. […] (FIG. 2)\nas §1"}, "[3]": {"system": "allergen response (wheal size)", "assay": "Skin prick test (SPT) in healthy atopic subjects", "type": "in vivo, human", "details": "10 mg q.d.", "protocol": "The ability of compound (I) to inhibit a defined allergen response has been evaluated by means of the skin prick test (SPT) in healthy atopic subjects in the MAD study part of the first in human study. SPT was performed prior to dosing (at screening, baseline and pre-dose on Day 1) and at different time points after the first dose (Day 1) and after 11 days of once daily dosing (Day 12)."}},
  "data": [
    {"smiles": "C=CC(=O)N(C)CCOc1c(N)ncnc1-c1cc(F)cc(NC(=O)c2ccc(C3CC3)cc2F)c1C", "note": "[Compound (I), N-(3-(6-Amino-5-(2-(N-methylacrylamido)ethoxy)pyrimidin-4-yl)-5-fluoro-2-methylphenyl)-4-cyclopropyl-2-fluorobenzamide]", "values": [
      {"measurement": "Renal clearance, mean ± SD", "setting": "[1]; Day 12, 400 mg qd", "value": "16.9 ± 7.13", "unit": "mL/min"},
      {"measurement": "drug accumulation ratio (Racc)", "setting": "[1]; day 12 vs day 1, high dose", "value": 1.2},
      {"measurement": "drug accumulation ratio (Racc)", "setting": "[1]; day 12 vs day 1, low dose", "value": 5},
      {"measurement": "MRT, median", "setting": "[1]; blood, Day 1, 10 mg qd", "value": 46, "unit": "min"},
      {"measurement": "MRT, median", "setting": "[1]; blood, Day 1, 25 mg qd", "value": 70.2, "unit": "min"},
      {"measurement": "AUC0-24, median", "setting": "[1]; blood, Day 1, 600 mg qd", "value": 932, "unit": "ng·h/mL"},
      {"measurement": "CLss/F, mean ± SD", "setting": "[1]; blood, Day 12, 10 mg qd", "value": "425 ± 64.8", "unit": "L/h"},
      {"measurement": "CLss/F, median (min-max)", "setting": "[1]; blood, Day 12, 10 mg qd", "value": "423 (341-529) L/h"},
      {"measurement": "AUC0-24, mean ± SD", "setting": "[1]; blood, Day 12, 25 mg qd", "value": "117 ± 60.9", "unit": "ng·h/mL"},
      {"measurement": "AUClast, mean ± SD", "setting": "[1]; blood, Day 12, 25 mg qd", "value": "114 ± 59.7", "unit": "ng·h/mL"},
      {"measurement": "CLss/F, mean ± SD", "setting": "[1]; blood, Day 12, 25 mg qd", "value": "307 ± 253", "unit": "L/h"},
      {"measurement": "CLss/F, median (min-max)", "setting": "[1]; blood, Day 12, 25 mg qd", "value": "248 (129-809) L/h"},
      {"measurement": "AUC0-24, mean ± SD", "setting": "[1]; blood, Day 12, 50 mg qd", "value": "209 ± 80.2", "unit": "ng·h/mL"},
      {"measurement": "AUC0-24, median (min-max)", "setting": "[1]; blood, Day 12, 50 mg qd", "value": "181 (127-325) h * ng/mL"},
      {"measurement": "CLss/F, mean ± SD", "setting": "[1]; blood, Day 12, 50 mg qd", "value": "268 ± 92.8", "unit": "L/h"},
      {"measurement": "CLss/F, median (min-max)", "setting": "[1]; blood, Day 12, 50 mg qd", "value": "276 (154-395) L/h"},
      {"measurement": "CLss/F, mean ± SD", "setting": "[1]; blood, Day 12, 100 mg qd", "value": "198 ± 88.7", "unit": "L/h"},
      {"measurement": "CLss/F, median (min-max)", "setting": "[1]; blood, Day 12, 100 mg qd", "value": "166 (129-298) L/h"},
      {"measurement": "CLss/F, mean ± SD", "setting": "[1]; blood, Day 12, 400 mg qd", "value": "366 ± 150", "unit": "L/h"},
      {"measurement": "CLss/F, median (min-max)", "setting": "[1]; blood, Day 12, 400 mg qd", "value": "351 (177-591) L/h"},
      {"measurement": "CLss/F, mean ± SD", "setting": "[1]; blood, Day 12, 600 mg qd", "value": "521 ± 131", "unit": "L/h"},
      {"measurement": "CLss/F, median (min-max)", "setting": "[1]; blood, Day 12, 600 mg qd", "value": "569 (345-661) L/h"},
      {"measurement": "Cmax, median (min-max)", "setting": "[1]; blood, Day 12, 600 mg qd", "value": "475 (377-985) ng/mL"},
      {"measurement": "increase of Cmax from 100 mg to 200 mg b.i.d.", "setting": "[1]; day 12", "value": 1.33, "unit": "fold"},
      {"measurement": "oral blood clearance CL/F, estimate across all cohorts", "setting": "[1]; single dose, all SAD cohorts", "value": "about 383 L/h"},
      {"measurement": "inhibition of skin edema (Evans blue extravasation)", "setting": "[2]; two oral doses of 3 mg/kg 14 and 2 hours before challenge", "value": 60.7, "unit": "%"},
      {"measurement": "inhibition of skin edema (Evans blue extravasation)", "setting": "[2]; two oral doses of 10 mg/kg 14 and 2 hours before challenge", "value": 66.9, "unit": "%"},
      {"measurement": "inhibition of skin edema (Evans blue extravasation)", "setting": "[2]; two oral doses of 30 mg/kg 14 and 2 hours before challenge", "value": 69.2, "unit": "%"},
      {"measurement": "inhibition of skin edema (Evans blue extravasation)", "setting": "[2]; two oral doses of 100 mg/kg 14 and 2 hours before challenge", "value": 87.4, "unit": "%"},
      {"measurement": "receptor occupancy at 3 mg/kg", "setting": "BTK; 3 mg/kg", "value": 68.1, "unit": "%"},
      {"measurement": "receptor occupancy at 10 mg/kg", "setting": "BTK; 10 mg/kg", "value": 82.1, "unit": "%"},
      {"measurement": "receptor occupancy at 30 mg/kg", "setting": "BTK; 30 mg/kg", "value": 91.3, "unit": "%"},
      {"measurement": "receptor occupancy at 100 mg/kg", "setting": "BTK; 100 mg/kg", "value": 99.3, "unit": "%"},
      {"measurement": "inhibition of wheal size in SPT", "setting": "[3]", "value": "minimal inhibition"}
    ]}
  ]
}
